Series [1] deals with 48 rhinovirus types, coxsackie virus A21, enterovirus 70, echovirus 11. The conditions noted are these: Pattick et al. 1999; cited from earlier work.
Series [2] in a line: In vivo conversion of prodrug to 1H pyrazol compound (serum). The conditions noted are these: in the serum mainly only the final active ingredient (CRCV-340) can be proven. An excerpt: Also covered are pro pharmacons (prodrugs) of the compounds, especially those which are characterized by a substituent on the pyrazol heteroatom in position 1. It has been shown that such types of compounds are converted in vivo to the 1H pyrazol compound. As an example, compounds have been mentioned in respect of which the pyrazol heteroatom in position 1 is substituted by an imino(phenyl)methyl substituent, such as, for example, 1-[Imino(phenyl)methyl]-4-amino-3-(4-trifluormethyl-phenyl)amino-6-phenylpyrazolo[3,4-d]pyrimidine, also designated by the IUPAC name 1-benzylcarboximidoyl-6-phenyl-3-N-[4-(trifluormethyl)phenyl]-1H-pyrazolo[3,4-d]-pyrimidine-3,4-diamine. Here this relates to a by-product of the manufacture of the compound described above, CRCV-340, resulting from the reaction of the compound CRCV-340 with an excess of benzamidine in the reaction mixture and having the following formula: […]
Also included are the salts, solvates or solvates of the salts produced by the above compounds. Within the scope of this invention the preferred salts are physiologically harmless salts of the compounds relating to the invention. […]

The conditions of series [3]: in vivo; cited from earlier work.
For series [4] the following is noted: in vivo; cited from earlier work. This is another data set of the same source.
The conditions of series [5]: in vivo; cited from earlier work. This is another data set of the same source.
For series [6] the following is noted: cited from earlier work.

Consider `CCOC(=O)/C=C/[C@H](C[C@@H]1CCNC1=O)NC(=O)[C@@H](CC(=O)[C@@H](NC(=O)c1cc(C)on1)C(C)C)Cc1ccc(F)cc1` [AG 7088], for which the “Active concentration range in cell culture” value in series [1] was “nanomolar concentration range”.

As for `N=C(c1ccccc1)n1nc(Nc2ccc(C(F)(F)F)cc2)c2c(N)nc(-c3ccccc3)nc21` [CRCV-340 prodrug, 1-[Imino(phenyl)methyl]-4-amino-3-(4-trifluormethyl-phenyl)amino-6-phenylpyrazolo[3,4-d]pyrimidine], in series [2], the “Conversion in vivo into the target compound” value was “very easily converted into the target compound”.

In the case of `Cc1cc(CCCCCOc2c(Cl)cc(C3=NCCO3)cc2Cl)on1` [WIN 54954], in series [3], the Side effects entry was “skin rash”. Further, in series [4], the Metabolisation and excretion entry is “fast metabolisation and excretion”.

Take `CCC(=O)C(CCCCCCOc1ccc(OC)cc1Cl)C(=O)CC` [arildone]: in series [5], the Bioavailability entry is “low bioavailability”. Moreover, the Solubility entry in series [6] is recorded as “Poor solubility”.

The record behind these values is patent publication US9790225B2, “4-amino-3-phenylamino-6-phenylpyrazolo[3,4-d]pyrimidine derivatives, their manufacture and their use as antiviral active substances” (Scandion Oncology A/S, priority 2011, dated 2017).
